The values below come from PubChem BioAssay (NCI).

Test systems include ACHN renal; NCI-H23 lung; SK-MEL-5 melanoma; SNB-75 CNS; SW-620 colon; OVCAR-8 ovarian; SK-MEL-2 melanoma; HCT-116 colon; OVCAR-4 ovarian; SF-268 CNS.
Assay in all cases: NCI-60 cell line screen, 48 h

Where “and” joins values, the source holds several entries; their conditions need not be identical. Equal entries are not always repeated.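 Compound exposure: 48 hours, 5 concentrations, 96-well plates. Abbreviation: GI50, concentration required for 50% inhibition of growth. TGI: concentration producing complete growth inhibition.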

In the case of `CNCc1ccccc1-c1csc([C@@H](C)Nc2nc(C)nc3cc(OC)c(OC)cc23)c1`, the GI50 in the assay with ACHN renal was 1.33 µM; in the assay on NCI-H23 lung, 2.83 µM; with SK-MEL-5 melanoma, 1.72 µM; with SNB-75 CNS, 1.33 µM; in the assay with SW-620 colon, 1.49 µM; in the assay with OVCAR-8 ovarian it was 2.29 µM. The GI50 with SK-MEL-2 melanoma is 1.87 µM; in the assay with HCT-116 colon, 1.71 µM; with OVCAR-4 ovarian, 2.4 µM; with SF-268 CNS, 2.66 µM. Further, the TGI in the assay with ACHN renal is 2.62 µM; with NCI-H23 lung, 15.5 µM; with SK-MEL-5 melanoma, 3.09 µM; in the assay with SNB-75 CNS, 2.65 µM; in the assay on SW-620 colon, 3.44 µM; in the assay on OVCAR-8 ovarian, 7.65 µM. Moreover, the TGI in the assay with SK-MEL-2 melanoma stood at 3.69 µM; in the assay on HCT-116 colon, 3.41 µM; with OVCAR-4 ovarian, 10.7 µM; in the assay with SF-268 CNS, 12.4 µM.
For `COc1cccc2c1C(=O)c1c(O)c3c(c(O)c1C2=O)C[C@@](O)(C(=O)CO)C[C@@H]3OC1CC(N)CC(C)O1` (stereo not given in full), the GI50 is 0.0175 µM in the assay with ACHN renal; 0.0405 µM and 0.0387 µM with NCI-H23 lung; 0.00743 µM and 0.025 µM in the assay with SK-MEL-5 melanoma; 0.00885 µM and 0.047 µM in the assay with SNB-75 CNS; 0.0117 µM and 0.0389 µM with SW-620 colon; 0.0359 µM and 0.052 µM with OVCAR-8 ovarian. Moreover, the GI50 is 0.125 µM and 0.0769 µM with SK-MEL-2 melanoma; 0.0155 µM and 0.0431 µM with HCT-116 colon; 0.0885 µM in the assay on OVCAR-4 ovarian; 0.0515 µM with SF-268 CNS. Also, the TGI in the assay on ACHN renal was 0.289 µM; in the assay on NCI-H23 lung it was 0.325 µM and 0.259 µM; in the assay with SK-MEL-5 melanoma it was 0.145 µM and 0.203 µM; with SNB-75 CNS, 0.195 µM and 0.161 µM; with SW-620 colon, 0.434 µM and 1.36 µM; with OVCAR-8 ovarian, 1.13 µM and 0.546 µM. Besides, the TGI in the assay on SK-MEL-2 melanoma was 0.315 µM and 0.22 µM; in the assay with HCT-116 colon, 0.79 µM and 0.33 µM; in the assay on OVCAR-4 ovarian it was 0.456 µM and 0.413 µM; in the assay on SF-268 CNS, 0.461 µM and 0.937 µM.
For `C=C1C(=O)OC2CC(C)C(C(CC(C)=O)OC(C)=O)=CCC12` (stereo not given), the TGI is 22.4 µM in the assay on ACHN renal; 34.3 µM in the assay with NCI-H23 lung; 32 µM in the assay with SK-MEL-5 melanoma; 54.2 µM with SNB-75 CNS; 10.6 µM with SW-620 colon; above 51.8 µM with OVCAR-8 ovarian. The TGI with SK-MEL-2 melanoma was found to be 40.8 µM; with HCT-116 colon, 4.21 µM; in the assay on OVCAR-4 ovarian, 34.2 µM; with SF-268 CNS, 74.5 µM.
Regarding `CC1(C)S[C@@H]2[C@H](NC(=O)C3(N)CCCCC3)C(=O)N2[C@H]1C(=O)O`, the TGI with ACHN renal, in the assay on NCI-H23 lung, in the assay on SK-MEL-5 melanoma, in the assay with SNB-75 CNS, in the assay on SW-620 colon and in the assay on OVCAR-8 ovarian was above 100 µM each time. Also, the TGI in the assay on SK-MEL-2 melanoma, with HCT-116 colon, in the assay with OVCAR-4 ovarian and in the assay on SF-268 CNS was above 100 µM in each case.
For `CC[As](CC)SC[C@H](C)C(=O)N1CCC[C@H]1C(=O)O`, the GI50 in the assay on ACHN renal was 0.0548 µM; in the assay with NCI-H23 lung, 0.222 µM; in the assay on SK-MEL-5 melanoma, 0.054 µM; with SNB-75 CNS, 0.0796 µM; with SW-620 colon it was 0.0344 µM; in the assay with OVCAR-8 ovarian it was 0.123 µM. Besides, the GI50 was 0.522 µM in the assay on SK-MEL-2 melanoma, 0.0419 µM with HCT-116 colon, 0.334 µM in the assay on OVCAR-4 ovarian and 0.249 µM with SF-268 CNS. Besides, the TGI stood at 0.169 µM in the assay with ACHN renal; 0.616 µM in the assay with NCI-H23 lung; 0.151 µM with SK-MEL-5 melanoma; 0.628 µM in the assay with SNB-75 CNS; 0.11 µM in the assay on SW-620 colon; 0.472 µM in the assay with OVCAR-8 ovarian. The TGI in the assay on SK-MEL-2 melanoma was 1.77 µM; in the assay with HCT-116 colon it was 0.162 µM; in the assay with OVCAR-4 ovarian, 1.13 µM; in the assay with SF-268 CNS, 1 µM.
As for `Cc1cn2c(=O)c3ncn(C4OC(CO)C(O)C4O)c3n(C)c2n1` (stereo not given), the TGI with ACHN renal, in the assay on NCI-H23 lung, in the assay with SK-MEL-5 melanoma, in the assay on SNB-75 CNS, in the assay on SW-620 colon and with OVCAR-8 ovarian was above 100 µM in each case. Besides, the TGI in the assay on SK-MEL-2 melanoma, with HCT-116 colon, with OVCAR-4 ovarian and in the assay on SF-268 CNS was above 100 µM in each case.
Regarding `O=C(O)COc1ccc2c(=O)c3sc4c(=O)c5ccccc5c(=O)c4c3c(=O)c2c1`, the GI50 is 23 µM in the assay with ACHN renal; 2.71 µM with NCI-H23 lung; 1.75 µM in the assay with SK-MEL-5 melanoma; 2.06 µM with SNB-75 CNS; 11.4 µM in the assay on SW-620 colon; 24.8 µM with OVCAR-8 ovarian. Moreover, the GI50 in the assay with SK-MEL-2 melanoma is 19.8 µM; with HCT-116 colon, 15.7 µM; in the assay with OVCAR-4 ovarian it was 14.1 µM; in the assay on SF-268 CNS, 14.8 µM. In addition, the TGI was above 100 µM with ACHN renal; 8.57 µM in the assay with NCI-H23 lung; 3.35 µM in the assay with SK-MEL-5 melanoma; 11.7 µM with SNB-75 CNS; 28.6 µM in the assay on SW-620 colon; 73.6 µM in the assay on OVCAR-8 ovarian. Also, the TGI in the assay with SK-MEL-2 melanoma worked out at 49.3 µM; in the assay with HCT-116 colon it was 63.3 µM; in the assay on OVCAR-4 ovarian, 27.3 µM; with SF-268 CNS it was 48.9 µM.
Take `CCN1CCN(C(=O)[C@@]2(C)CC[C@]3(C)CC[C@]4(C)C(=CC(=O)[C@@H]5[C@@]6(C)CC[C@H](OC7C[C@@H](O)[C@@H](O)C(C)O7)C(C)(C)[C@@H]6CC[C@]54C)[C@@H]3C2)CC1` (stereo not given in full): the GI50 was 0.91 µM in the assay on ACHN renal; 2.36 µM in the assay with NCI-H23 lung; 1.56 µM with SK-MEL-5 melanoma; 6.39 µM in the assay on SNB-75 CNS; 1.7 µM in the assay on SW-620 colon; 1.62 µM in the assay with OVCAR-8 ovarian. Besides, the GI50 is 8.95 µM with SK-MEL-2 melanoma, 1.65 µM in the assay with HCT-116 colon, 1.27 µM with OVCAR-4 ovarian and 1.6 µM in the assay on SF-268 CNS. The TGI came out at 1.69 µM with ACHN renal; 9.57 µM in the assay on NCI-H23 lung; 4.6 µM with SK-MEL-5 melanoma; 12.8 µM in the assay on SNB-75 CNS; 6.36 µM in the assay with SW-620 colon; 6.82 µM in the assay with OVCAR-8 ovarian. The TGI in the assay on SK-MEL-2 melanoma was determined as 17.9 µM; with HCT-116 colon it was 5.74 µM; with OVCAR-4 ovarian, 3.08 µM; with SF-268 CNS, 6.18 µM.
